Laboratory results as given in PubChem BioAssay AID330 (DTP/NCI, 2004).
Where “and” joins values, the source holds several entries; their conditions need not be identical. Equal values may be shown once. Inconclusive results and toxic doses are left out. Rule for the calls: active = survival T/C of 150% or more; inactive = T/C below 125% in these data.

Test system: P388 leukemia ip, CD2F1 mice, survival T/C
Test: NCI In Vivo Anticancer Drug Screen. Data for tumor model P388 Leukemia (intraperitoneal) in CD2F1 (CDF1) mice
Settings: endpoint: median survival time, higher = longer survival
In short: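 Mice carrying the transplanted tumor received test compound or vehicle. Survival was recorded in each group, and the value is the treated-group measurement divided by that of the vehicle-treated control group.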

[1] = dose: 6.25 mg/kg/injection, schedule: Q01DX009 (ip), vehicle: water
[2] = dose: 12.5 mg/kg/injection, schedule: Q01DX009 (ip), vehicle: water
[3] = dose: 25.0 mg/kg/injection, schedule: Q01DX009 (ip), vehicle: water
[4] = dose: 50.0 mg/kg/injection, schedule: Q01DX009 (ip), vehicle: water
[5] = dose: 50.0 mg/kg/injection, schedule: Q01DX005 (ip), vehicle: saline with Tween-80
[6] = dose: 100.0 mg/kg/injection, schedule: Q01DX005 (ip), vehicle: saline with Tween-80
[7] = dose: 200.0 mg/kg/injection, schedule: Q01DX005 (ip), vehicle: saline with Tween-80
[8] = dose: 6.25 mg/kg/injection, schedule: Q01DX009 (ip), vehicle: Klucel (hydroxypropylcellulose) (HPC)
[9] = dose: 12.5 mg/kg/injection, schedule: Q01DX009 (ip), vehicle: Klucel (hydroxypropylcellulose) (HPC)
[10] = dose: 25.0 mg/kg/injection, schedule: Q01DX009 (ip), vehicle: Klucel (hydroxypropylcellulose) (HPC)
[11] = dose: 50.0 mg/kg/injection, schedule: Q01DX005 (ip), vehicle: Klucel (hydroxypropylcellulose) (HPC)
[12] = dose: 100.0 mg/kg/injection, schedule: Q01DX005 (ip), vehicle: Klucel (hydroxypropylcellulose) (HPC)
[13] = dose: 200.0 mg/kg/injection, schedule: Q01DX005 (ip), vehicle: Klucel (hydroxypropylcellulose) (HPC)
[14] = dose: 12.5 mg/kg/injection, schedule: Q01DX009 (ip), vehicle: saline with Tween-80
[15] = dose: 25.0 mg/kg/injection, schedule: Q01DX009 (ip), vehicle: saline with Tween-80
[16] = dose: 50.0 mg/kg/injection, schedule: Q01DX009 (ip), vehicle: Klucel (hydroxypropylcellulose) (HPC)
[17] = dose: 100.0 mg/kg/injection, schedule: Q01DX009 (ip), vehicle: Klucel (hydroxypropylcellulose) (HPC)
[18] = dose: 200.0 mg/kg/injection, schedule: Q01DX009 (ip), vehicle: Klucel (hydroxypropylcellulose) (HPC)

Measured: T/C

CC1(CC(C)(C)C2CCCCC2)OCCO1
inactive: [1] 104 % of control | [2] 108 % of control | [3] 107 % of control | [4] 109 % of control | dose: 100.0 mg/kg/injection, schedule: Q01DX009 (ip), vehicle: water 90 % of control

COc1ccc2ccccc2c1Cc1ccc(N(C)C)cc1Cl
inactive: [5] 92 % of control | [6] 95 % of control | [7] 90 % of control

Oc1ccc2ccccc2c1/C=N/NC(=S)N/N=C/c1c(O)ccc2ccccc12
inactive: dose: 0.38 mg/kg/injection, schedule: Q01DX005 (ip), vehicle: saline with Tween-80 97 % of control | dose: 0.75 mg/kg/injection, schedule: Q01DX005 (ip), vehicle: saline with Tween-80 97 % of control | dose: 1.5 mg/kg/injection, schedule: Q01DX005 (ip), vehicle: saline with Tween-80 90 % of control and 92 % of control | dose: 6.0 mg/kg/injection, schedule: Q01DX005 (ip), vehicle: saline with Tween-80 86 % of control | [6] 96 % of control | [7] 116 % of control

CC1(C)CC(=O)OC/C=C\CC(Cc2ccccc2)C(=O)C1 (centres undefined)
inactive: dose: 100.0 mg/kg/injection, schedule: Q04DX003 (ip), vehicle: saline 104 % of control | dose: 200.0 mg/kg/injection, schedule: Q04DX003 (ip), vehicle: saline 97 % of control | dose: 400.0 mg/kg/injection, schedule: Q04DX003 (ip), vehicle: saline 96 % of control

S=C(Nc1ccc(I)cc1)SCc1ccc2c(c1)OCO2
inactive: dose: 50.0 mg/kg/injection, schedule: Q01DX009 (ip), vehicle: suspension in saline 110 % of control | dose: 100.0 mg/kg/injection, schedule: Q01DX009 (ip), vehicle: suspension in saline 104 % of control | dose: 200.0 mg/kg/injection, schedule: Q01DX009 (ip), vehicle: suspension in saline 101 % of control

C=CCCCCCCCCCC(CCCCCC)C(=O)O (centres undefined)
inactive: dose: 50.0 mg/kg/injection, schedule: Q01DX001 (ip), vehicle: saline with Tween-80 91 % of control | dose: 100.0 mg/kg/injection, schedule: Q01DX001 (ip), vehicle: saline with Tween-80 100 % of control | dose: 200.0 mg/kg/injection, schedule: Q01DX001 (ip), vehicle: saline with Tween-80 95 % of control

C=CCSc1nc2ccc(N3C(=O)C=CC3=O)cc2s1
inactive: [8] 111 % of control | [9] 104 % of control and 113 % of control | [10] 108 % of control and 113 % of control

CCOC(=O)C1C(=O)N2C(=O)C(NC(C)=O)=C(O)C2C1c1ccc(Cl)cc1 (centres undefined)
inactive: dose: 100.0 mg/kg/injection, schedule: Q04DX002 (ip), vehicle: saline with Tween-80 100 % of control | dose: 200.0 mg/kg/injection, schedule: Q04DX002 (ip), vehicle: saline with Tween-80 105 % of control | dose: 400.0 mg/kg/injection, schedule: Q04DX002 (ip), vehicle: saline with Tween-80 98 % of control

CC1Cc2ccccc2/C1=N/NC(N)=O (centres undefined)
inactive: [11] 103 % of control | [12] 100 % of control | [13] 99 % of control

COc1ccc(-c2sc(/N=C/c3ccc(N(C)CCC#N)cc3)c(C#N)c2C)cc1OC
inactive: dose: 3.13 mg/kg/injection, schedule: Q01DX009 (ip), vehicle: Klucel (hydroxypropylcellulose) (HPC) 89 % of control | [8] 91 % of control | [9] 91 % of control | [10] 90 % of control

CCCC(C)(O)/C(C)=N/O (centres undefined)
inactive: [14] 98 % of control | [15] 101 % of control | dose: 50.0 mg/kg/injection, schedule: Q01DX009 (ip), vehicle: saline with Tween-80 104 % of control and 87 % of control | dose: 200.0 mg/kg/injection, schedule: Q01DX009 (ip), vehicle: saline with Tween-80 90 % of control

COc1ccc(Cc2cc3c(cc2OCC(=O)N(C)C)OCO3)cc1
inactive: [11] 103 % of control | [12] 98 % of control | [13] 96 % of control

O=c1oc2nc(-c3ccccc3)[nH]c(=O)c2c(O)c1-c1ccccc1
inactive: dose: 60.0 mg/kg/injection, schedule: Q01DX005 (ip), vehicle: Klucel (hydroxypropylcellulose) (HPC) 96 % of control | dose: 120.0 mg/kg/injection, schedule: Q01DX005 (ip), vehicle: Klucel (hydroxypropylcellulose) (HPC) 96 % of control

COc1cc(=O)n(-c2ccccc2)nc1C#N
inactive: [5] 93 % of control | [6] 92 % of control | [7] 90 % of control

Cn1c(O)c(N=O)c(=O)[nH]c1=S
inactive: dose: 12.5 mg/kg/injection, schedule: Q04DX002 (ip), vehicle: saline 101 % of control | dose: 25.0 mg/kg/injection, schedule: Q04DX002 (ip), vehicle: saline 103 % of control

CN(C)Cc1c(/C=C/C2=[N+](C)c3ccccc3C2(C)C)[nH]c2ccccc12
inactive: [16] 110 % of control | [17] 107 % of control | [18] 110 % of control

COc1ccc(CCN2C(=O)C(=O)N(c3cccc4c(N5C(=O)C(=O)N(CCc6ccc(OC)c(OC)c6)C5=O)cccc34)C2=O)cc1OC
inactive: [16] 95 % of control | [17] 93 % of control | [18] 96 % of control

COc1cccc(CN2CCCNCC2)c1
inactive: [1] 93 % of control | [2] 93 % of control | [3] 97 % of control | [4] 101 % of control

Oc1cc(CN2CCOCC2)c(O)cc1CN1CCOCC1
inactive: dose: 1.56 mg/kg/injection, schedule: Q01DX009 (ip), vehicle: saline with Tween-80 100 % of control | dose: 3.13 mg/kg/injection, schedule: Q01DX009 (ip), vehicle: saline with Tween-80 119 % of control and 121 % of control | dose: 6.25 mg/kg/injection, schedule: Q01DX009 (ip), vehicle: saline with Tween-80 113 % of control | [14] 113 % of control | [15] 117 % of control

CCC12CCCN1CCc1c([nH]c3ccccc13)C2=O (centres undefined)
inactive: dose: 100.0 mg/kg/injection, schedule: Q04DX002 (ip), vehicle: suspension in saline 105 % of control | dose: 200.0 mg/kg/injection, schedule: Q04DX002 (ip), vehicle: suspension in saline 99 % of control

Cn1c(COc2ccc(/C=N\N/C(N)=N/N=C/c3ccc(OCc4c[n+]5ccccc5n4C)cc3)cc2)c[n+]2ccccc12
inactive: dose: 12.5 mg/kg/injection, schedule: Q01DX005 (ip), vehicle: saline with Tween-80 110 % of control | dose: 25.0 mg/kg/injection, schedule: Q01DX005 (ip), vehicle: saline with Tween-80 112 % of control

CC(C)[N+](=C1O[B-](c2ccccc2)(c2ccccc2)O[B-]1(c1ccccc1)[C+]1CCCCC1)C(C)C (centres undefined)
inactive: [5] 102 % of control | [6] 108 % of control | [7] 116 % of control

Cc1[nH]c(=O)n(C(C)C)c(=O)c1Br
inactive: dose: 100.0 mg/kg/injection, schedule: Q01DX001 (ip), vehicle: saline sonified 100 % of control | dose: 200.0 mg/kg/injection, schedule: Q01DX001 (ip), vehicle: saline sonified 100 % of control | dose: 400.0 mg/kg/injection, schedule: Q01DX001 (ip), vehicle: saline sonified 100 % of control

O=S(=O)(c1cccc(N=C=S)c1)c1cccc(N=C=S)c1
inactive: dose: 6.25 mg/kg/injection, schedule: Q01DX005 (ip), vehicle: Klucel (hydroxypropylcellulose) (HPC) 123 % of control | dose: 12.5 mg/kg/injection, schedule: Q01DX005 (ip), vehicle: Klucel (hydroxypropylcellulose) (HPC) 117 % of control and 123 % of control | dose: 25.0 mg/kg/injection, schedule: Q01DX005 (ip), vehicle: Klucel (hydroxypropylcellulose) (HPC) 123 % of control | [11] 103 % of control
